Values quoted from earlier work as cited in patent publication US10391093B2, “Therapeutic compounds” (Arizona Board of Regents, A Body Corporate of the State of …, priority 2011, dated 2019).

Experiments:
hRXRβ = hRXRβ (Homo sapiens, UniProt P28702); conditions: read-out: EC50 for the hRXRβ isoform
hRXR [1] = conditions: Caco-2 cells
hRXR [2] = conditions: Caco-2 cells; remark: listed apart in the source

hRXRβ, sequence (P28702 whole entry, canonical isoform): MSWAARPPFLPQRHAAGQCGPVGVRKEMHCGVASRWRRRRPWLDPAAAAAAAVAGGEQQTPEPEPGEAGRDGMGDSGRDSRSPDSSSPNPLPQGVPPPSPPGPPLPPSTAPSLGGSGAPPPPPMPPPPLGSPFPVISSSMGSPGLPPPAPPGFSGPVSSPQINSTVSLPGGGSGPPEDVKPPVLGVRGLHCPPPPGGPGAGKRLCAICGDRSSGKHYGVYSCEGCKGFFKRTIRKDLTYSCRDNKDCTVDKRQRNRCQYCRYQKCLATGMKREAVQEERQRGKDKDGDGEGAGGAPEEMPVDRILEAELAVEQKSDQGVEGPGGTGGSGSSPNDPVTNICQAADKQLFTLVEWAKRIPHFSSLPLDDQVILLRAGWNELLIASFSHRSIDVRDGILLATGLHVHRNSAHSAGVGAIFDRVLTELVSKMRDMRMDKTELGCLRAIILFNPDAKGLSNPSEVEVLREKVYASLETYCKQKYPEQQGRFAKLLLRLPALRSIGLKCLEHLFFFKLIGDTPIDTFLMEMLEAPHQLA

Structure (SMILES)	EC50 (hRXRβ)	Kd (hRXR [1])	EC50 (hRXR [2])
Cc1cc2c(cc1-c1cc(/C=C/C(=O)O)ccc1O)C(C)(C)CCC2(C)C [CD3254]	~10 nM	–	–
C=C(c1ccc(C(=O)O)c(F)c1)c1cc2c(cc1C)C(C)(C)CCC2(C)C [Compound 3]	–	12 nM	43 nM
